Test results taken from patent US4981690A, “Liposome-incorporated mepartricin” (priority 1987, dated 1991).
Like-named read-outs stand apart in the source and are kept apart here.

Columns and labels:
[1] = system: human red blood cells; assay: Lysis of human red blood cells (hemoglobin release at 550 nm); assay type: cell-based; conditions: SLS present in F-SPA-222
Experimental: The human RBCs were incubated at 37° C. for 45 min. with ( X) free-SPA-222, (Δ) sodium lauryl sulfate, ( .circle. ) free SPA-160, ( .circle. ) liposomal SPA-160 (L-SPA-160) in liposomes composed of DMPC:DMPG (7:3), ( ) L-SPA-160 in liposomes composed of DMPC:DMPG+cholesterol (9:1) or ( ) L-SPA-160 in liposomes composed of DMPC:DMPG+ergosterol (9:1)
Lysis of human red blood cells (HRBCs) was quantitated by measuring the release of hemoglobin in the supernatants at 550 nm, as described previously (Mehta et al., Biochim. Biophys, Acta., Vol. 770, pp. 230-234 (1984)). Various doses of L-SPA were incubated with fresh washed human RBCs at 37° C. for 45 minutes,24 hr, 48 hr and 96 hr.
Lysis of HRBCs was quantitated by measuring the release of hemoglobin in the supernatants at 550 nm as previously described (Mehta et al., (1984) Biochem. Biophys. Acts, 770:230). Various doses of L-SPA-160 were incubated with fresh washed HRBCs at 37° C. for 45 minutes, 24, 48 and 96 hrs. Free-SPA-222, stock dissolved in water and diluted with isotonic PBS was added to the assay. F-SPA-160 as DMFA solution diluted with isotonic PBS was also used as a control and contained 3% DMFA at a final concentration of drug at 300 ug ml. Appropriate solvent controls and empty liposomes were also included in each experiment. […]

[2] = water, cited from earlier work
[3] = compared with partricin; cited from earlier work
[4] = system: HTLV-III/LAV; conditions: H9 cells; Schaffner et al. 1986; cited from earlier work

Compound	Aqueous solubility (in words) [2]	Inhibition of HTLV-III/LAV replication (in words) [4]	other results
CCCCCCCCCCCCOS(=O)(=O)[O-].[Na+] [SLS, sodium lauryl sulphate]			Share of F-SPA-222 RBC toxicity associated with SLS [1]: Fifty percent
Mepartricin	low aqueous solubility		Aqueous solubility (in words) ([2]; listed as mepartricin): substantially water-insoluble; Toxicity to animals relative to partricin (in words) [3]: much less toxic to animals than partricin
C[C@@H]1[C@H](O)[C@@H](C)/C=C/C=C/CC/C=C/C=C/C=C/C=C/C(O[C@H]2O[C@H](C)[C@@H](O)[C@H](N)[C@@H]2O)CC2O[C@](O)(CC(O)C(O)CCC(O)CC(O)CC(O)CC(=O)O[C@H]1C)CC(O)C2C(=O)O (some centres unmarked) [Nystatin]	aqueous insolubility		
COC(=O)[C@H]1[C@@H]2C[C@@H](O[C@@H]3O[C@H](C)[C@@H](O)[C@H](N)[C@@H]3O)/C=C/C=C/C=C/C=C/C=C/C=C/C=C/[C@H](C)[C@@H](O)[C@@H](C)[C@H](C)OC(=O)C[C@H](O)C[C@H](O)CC[C@@H](O)[C@H](O)C[C@H](O)C[C@](O)(C[C@@H]1O)O2 [amphotericin B methyl ester ascorbate]		inhibited	
C[C@@H]1[C@H](O)[C@@H](C)/C=C/C=C/C=C/C=C/C=C/C=C/C=C/[C@H](O[C@@H]2O[C@H](C)[C@@H](O)[C@H](N)[C@@H]2O)C[C@@H]2O[C@](O)(C[C@@H](O)C[C@@H](O)[C@H](O)CC[C@@H](O)C[C@@H](O)CC(=O)O[C@H]1C)C[C@H](O)[C@H]2C(=O)O [Amphotericin B]	insoluble in water	inhibited	
